US11884661B2, “3-substituted propionic acids as αV integrin inhibitors” (BRISTOL-MYERS SQUIBB COMPANY, priority 2016, dated 2024)

Experiments:
human αVβ6 = target: T1, human αVβ6 (Homo sapiens, UniProt P06756+P18564); experiment: human αVβ6 HTRF binding assay; settings: recombinant human αVβ6 integrin, FITC-conjugated fibronectin
T1 construct: purchased R & D systems 3817-AV
In short: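 Biotinylated recombinant αVβ6 (1.25 nM final) incubated with FITC-fibronectin (5 nM) 1 h at RT, then streptavidin-terbium (0.625 nM) added and incubated overnight at RT in the dark before HTRF read. Buffer: 20 mM Tris pH 7.4, 1 mM MgCl2, 1 mM MnCl2, 0.01% Tween 20, 0.01% BSA.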

human αVβ1 = human αVβ1 (Homo sapiens, UniProt P05556+P06756); experiment: human αVβ1 HTRF binding assay
Protocol: (§1) All binding assays used the HTRF (homogeneous time resolved fluorescence) technology from Cisbio International, therefore all assays are described as HTRF binding assays. The assay results for the Examples are listed above together with the characterization data. The HTRF binding assays are established for the following integrins: human αVβ6, human αVβ1, human αVβ3, human αVβ5, and human αVβ8. All assays used the following assay buffer: 20 mM Tris, pH 7.4, 1 mM MgCl2, 1 mM MnCl2, 0.01% Tween 20, and 0.01% BSA. Alternatively, a SPA-based assay was used for evaluation of receptor binding.
(§2) The following describes the components and a representative procedure for the human αVβ6 HTRF binding assay: Recombinant human αVβ6 Integrin (R & D systems, 3817-AV) was biotinylated. Biotinylated human αVβ6 Integrin was added to assay vessel at a final concentration of 1.25 nM. FITC-conjugated fibronectin (Cytoskeleton, FNR02) was then added at the final concentration of 5 nM. The mixture was centrifuged at 600 rpm for three minutes using Thermo Fisher Heraeus Multifuge X3 centrifuge and then incubated at RT for an hour. Streptavidin Terbium (Cisbio international 610STLB) was then added at the final concentration of 0.625 nM. The resulting mixture was centrifuged at 600 rpm for three minutes using Thermo Fisher Heraeus Multifuge X3 centrifuge and then incubated at room temperature overnight in dark before reading HTRF signals.

human αVβ3 = human αVβ3 (Homo sapiens, UniProt P05106+P06756); experiment: human αVβ3 HTRF binding assay
Protocol: as §1, §2

human αVβ5 = human αVβ5 (Homo sapiens, UniProt P06756+P18084); experiment: human αVβ5 HTRF binding assay
Protocol: as §1, with “binding. […]” for “binding.”

human αVβ8 = human αVβ8 (Homo sapiens, UniProt P06756+P26012); experiment: human αVβ8 HTRF binding assay
Protocol: as §1, with “binding. […]” for “binding.”

human αVβ1, sequence (P06756 31-992 limits assumed): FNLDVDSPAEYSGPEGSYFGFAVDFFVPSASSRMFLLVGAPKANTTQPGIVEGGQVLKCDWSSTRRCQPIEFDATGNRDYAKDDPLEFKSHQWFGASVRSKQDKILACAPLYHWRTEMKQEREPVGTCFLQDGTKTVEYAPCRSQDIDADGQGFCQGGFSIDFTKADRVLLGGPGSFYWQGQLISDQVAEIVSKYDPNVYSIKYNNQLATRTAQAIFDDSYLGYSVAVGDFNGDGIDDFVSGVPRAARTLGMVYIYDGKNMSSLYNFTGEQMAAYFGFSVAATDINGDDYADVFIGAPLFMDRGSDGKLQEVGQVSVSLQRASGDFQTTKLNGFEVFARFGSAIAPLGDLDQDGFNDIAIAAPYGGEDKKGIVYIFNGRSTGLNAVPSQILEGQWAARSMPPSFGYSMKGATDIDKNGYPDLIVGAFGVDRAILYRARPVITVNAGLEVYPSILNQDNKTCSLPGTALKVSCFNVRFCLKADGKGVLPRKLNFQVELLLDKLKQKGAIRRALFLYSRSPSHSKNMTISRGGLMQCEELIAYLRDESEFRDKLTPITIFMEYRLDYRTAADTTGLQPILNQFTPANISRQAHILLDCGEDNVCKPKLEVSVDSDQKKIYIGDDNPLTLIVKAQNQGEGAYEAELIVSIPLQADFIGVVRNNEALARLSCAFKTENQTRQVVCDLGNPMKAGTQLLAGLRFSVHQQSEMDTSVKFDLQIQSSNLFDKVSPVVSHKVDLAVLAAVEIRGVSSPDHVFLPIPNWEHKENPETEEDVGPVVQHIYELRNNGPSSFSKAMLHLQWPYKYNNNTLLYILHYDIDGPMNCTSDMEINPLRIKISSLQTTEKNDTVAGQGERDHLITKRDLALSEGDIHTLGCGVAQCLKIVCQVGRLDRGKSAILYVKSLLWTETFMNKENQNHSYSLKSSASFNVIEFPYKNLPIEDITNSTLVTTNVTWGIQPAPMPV
human αVβ1, sequence (P05556 21-728 limits assumed): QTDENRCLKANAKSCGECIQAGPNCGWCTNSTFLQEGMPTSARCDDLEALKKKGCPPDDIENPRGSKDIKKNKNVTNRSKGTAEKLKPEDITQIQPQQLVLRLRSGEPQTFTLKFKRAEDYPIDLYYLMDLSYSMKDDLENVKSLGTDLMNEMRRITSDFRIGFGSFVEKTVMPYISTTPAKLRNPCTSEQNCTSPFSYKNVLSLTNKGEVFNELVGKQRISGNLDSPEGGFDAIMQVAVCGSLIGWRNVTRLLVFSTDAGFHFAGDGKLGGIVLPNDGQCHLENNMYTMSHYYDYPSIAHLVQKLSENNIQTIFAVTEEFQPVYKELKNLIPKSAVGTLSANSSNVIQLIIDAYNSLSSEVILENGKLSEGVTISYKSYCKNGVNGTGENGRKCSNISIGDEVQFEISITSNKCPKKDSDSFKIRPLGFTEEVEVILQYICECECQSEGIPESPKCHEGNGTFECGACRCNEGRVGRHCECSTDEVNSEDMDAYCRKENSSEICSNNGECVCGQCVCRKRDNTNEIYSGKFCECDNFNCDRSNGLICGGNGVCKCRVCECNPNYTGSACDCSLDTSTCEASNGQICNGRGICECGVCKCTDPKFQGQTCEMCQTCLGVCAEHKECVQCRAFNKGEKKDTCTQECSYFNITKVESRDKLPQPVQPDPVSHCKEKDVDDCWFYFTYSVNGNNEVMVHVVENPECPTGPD
human αVβ3, sequence (P06756 31-992 limits assumed): as the sequence (P06756 31-992 limits assumed) above
human αVβ3, sequence (P05106 27-718 limits assumed): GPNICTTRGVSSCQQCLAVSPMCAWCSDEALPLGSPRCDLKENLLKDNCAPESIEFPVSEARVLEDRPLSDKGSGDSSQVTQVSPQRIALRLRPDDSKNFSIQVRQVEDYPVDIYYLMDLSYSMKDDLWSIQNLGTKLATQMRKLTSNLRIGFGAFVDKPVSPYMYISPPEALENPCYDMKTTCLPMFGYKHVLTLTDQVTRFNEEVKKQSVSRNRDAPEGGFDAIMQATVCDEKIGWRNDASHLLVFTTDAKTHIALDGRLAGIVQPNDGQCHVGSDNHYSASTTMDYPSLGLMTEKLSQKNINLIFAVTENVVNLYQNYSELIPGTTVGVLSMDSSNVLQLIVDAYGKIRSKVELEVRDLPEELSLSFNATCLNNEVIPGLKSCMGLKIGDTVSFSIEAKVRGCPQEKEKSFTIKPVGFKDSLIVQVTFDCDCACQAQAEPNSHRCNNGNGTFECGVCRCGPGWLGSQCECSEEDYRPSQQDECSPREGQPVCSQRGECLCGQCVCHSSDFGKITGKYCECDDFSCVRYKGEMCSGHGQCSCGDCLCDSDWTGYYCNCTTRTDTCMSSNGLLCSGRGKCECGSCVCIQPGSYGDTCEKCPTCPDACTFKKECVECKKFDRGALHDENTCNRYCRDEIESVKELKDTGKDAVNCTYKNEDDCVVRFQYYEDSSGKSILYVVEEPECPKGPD
T1 sequence (P06756 31-992 limits assumed): as the sequence (P06756 31-992 limits assumed) above
T1 sequence (P18564 22-707 limits assumed): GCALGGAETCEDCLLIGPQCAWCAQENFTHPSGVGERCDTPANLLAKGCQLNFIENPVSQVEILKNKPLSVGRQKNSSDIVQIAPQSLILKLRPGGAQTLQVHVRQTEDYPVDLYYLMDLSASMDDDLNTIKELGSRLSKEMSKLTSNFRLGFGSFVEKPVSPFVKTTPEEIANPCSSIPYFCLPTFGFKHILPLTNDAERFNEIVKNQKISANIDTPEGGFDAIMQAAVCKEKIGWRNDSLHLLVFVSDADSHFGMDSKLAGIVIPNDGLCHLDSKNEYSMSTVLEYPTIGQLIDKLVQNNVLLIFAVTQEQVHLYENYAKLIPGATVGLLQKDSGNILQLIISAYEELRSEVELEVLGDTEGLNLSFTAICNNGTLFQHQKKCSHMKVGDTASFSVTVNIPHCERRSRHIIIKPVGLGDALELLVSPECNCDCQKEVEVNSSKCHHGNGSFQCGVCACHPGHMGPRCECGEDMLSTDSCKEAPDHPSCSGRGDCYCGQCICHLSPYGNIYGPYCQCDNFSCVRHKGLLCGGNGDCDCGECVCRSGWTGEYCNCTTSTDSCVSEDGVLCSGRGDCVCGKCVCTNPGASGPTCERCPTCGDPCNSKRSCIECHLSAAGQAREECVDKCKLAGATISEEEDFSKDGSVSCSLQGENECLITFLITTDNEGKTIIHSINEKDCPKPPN
human αVβ8, sequence (P06756 31-992 limits assumed): as the sequence (P06756 31-992 limits assumed) above
human αVβ8, sequence (P26012 43-684 limits assumed): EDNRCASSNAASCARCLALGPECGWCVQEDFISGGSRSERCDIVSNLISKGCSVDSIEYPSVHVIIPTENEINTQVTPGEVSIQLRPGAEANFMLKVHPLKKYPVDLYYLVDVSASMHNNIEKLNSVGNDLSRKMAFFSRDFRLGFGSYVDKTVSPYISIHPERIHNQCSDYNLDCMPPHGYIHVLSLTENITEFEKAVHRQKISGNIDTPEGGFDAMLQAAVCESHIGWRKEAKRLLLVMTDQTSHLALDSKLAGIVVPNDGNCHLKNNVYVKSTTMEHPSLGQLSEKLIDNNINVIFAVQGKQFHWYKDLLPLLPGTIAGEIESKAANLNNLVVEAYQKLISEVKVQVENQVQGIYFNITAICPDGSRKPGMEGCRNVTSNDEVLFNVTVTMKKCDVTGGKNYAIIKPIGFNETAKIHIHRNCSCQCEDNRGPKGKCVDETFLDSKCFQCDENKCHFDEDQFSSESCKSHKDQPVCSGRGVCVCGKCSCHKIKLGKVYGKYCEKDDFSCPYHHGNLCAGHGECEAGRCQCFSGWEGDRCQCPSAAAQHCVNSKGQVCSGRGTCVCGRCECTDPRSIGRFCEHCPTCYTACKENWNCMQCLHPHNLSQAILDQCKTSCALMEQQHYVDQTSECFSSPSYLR
human αVβ5, sequence (P06756 31-992 limits assumed): as the sequence (P06756 31-992 limits assumed) above
human αVβ5, sequence (P18084 24-719 limits assumed): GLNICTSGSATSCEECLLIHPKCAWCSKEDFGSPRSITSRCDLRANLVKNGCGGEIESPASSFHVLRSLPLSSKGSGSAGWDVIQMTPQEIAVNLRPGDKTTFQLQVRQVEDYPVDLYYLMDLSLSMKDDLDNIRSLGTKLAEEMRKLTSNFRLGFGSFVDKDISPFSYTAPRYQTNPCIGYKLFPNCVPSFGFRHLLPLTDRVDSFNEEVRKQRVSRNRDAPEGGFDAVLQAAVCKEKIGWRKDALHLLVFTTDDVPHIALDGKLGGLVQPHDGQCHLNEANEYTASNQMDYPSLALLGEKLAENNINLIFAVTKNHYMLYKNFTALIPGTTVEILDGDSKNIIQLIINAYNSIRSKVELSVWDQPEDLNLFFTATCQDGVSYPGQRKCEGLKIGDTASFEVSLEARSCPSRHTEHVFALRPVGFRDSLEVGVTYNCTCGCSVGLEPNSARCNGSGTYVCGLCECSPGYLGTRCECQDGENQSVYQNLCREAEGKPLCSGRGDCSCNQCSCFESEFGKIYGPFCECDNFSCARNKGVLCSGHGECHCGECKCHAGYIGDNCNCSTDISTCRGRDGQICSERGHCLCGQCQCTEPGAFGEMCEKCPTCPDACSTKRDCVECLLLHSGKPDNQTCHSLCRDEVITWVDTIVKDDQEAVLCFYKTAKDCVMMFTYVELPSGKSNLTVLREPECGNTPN

Q: How did the IC50 (human αVβ6) turn out when CCOc1ncc(C(CC(=O)O)n2ccc(CCCc3ccc4c(n3)NCCC4)n2)cn1 (racemic) [Example 27, (±)-3-(2-Ethoxypyrimidin-5-yl)-3-(3-(3-(5,6,7,8-tetrahydro-1,8-naphthyridin-2-yl)propyl)-1H-pyrazol-1-yl)propanoic acid] was run?
A: Its IC50 is 9.4 nM.

Q: And the IC50 (human αVβ1)?
A: The IC50 was 144 nM.

Q: And the IC50 (human αVβ3)?
A: The IC50 was 2.3 nM.

Q: And the IC50 (human αVβ5)?
A: The IC50 was 0.76 nM.

Q: And the IC50 (human αVβ8)?
A: The IC50 was 1800 nM.

Q: What does the source list for O=C(O)CC(c1cnc2ccccc2c1)n1ccc(CCCc2ccc3c(n2)NCCC3)n1 (racemic) [Example 29, (±)-3-(Quinolin-3-yl)-3-(3-(3-(5,6,7,8-tetrahydro-1,8-naphthyridin-2-yl)propyl)-1H-pyrazol-1-yl)propanoic acid]?
A: IC50 (human αVβ6): 11.2 nM; IC50 (human αVβ1): 286 nM; IC50 (human αVβ3): 1.7 nM; IC50 (human αVβ5): 6.5 nM; IC50 (human αVβ8): 2900 nM

Q: With O=C(O)CC(c1ccc2c(c1)CCO2)n1ccc(CCCc2ccc3c(n2)NCCC3)n1 (racemic) [Example 30, (±)-3-(2,3-Dihydrobenzofuran-5-yl)-3-(3-(3-(5,6,7,8-tetrahydro-1,8-naphthyridin-2-yl)propyl)-1H-pyrazol-1-yl)propanoic acid] as the molecule, how does the IC50 (human αVβ6) read?
A: Its IC50 is 5.7 nM.

Q: What about the IC50 (human αVβ1) of the same molecule?
A: Its IC50 is 100 nM.

Q: What about the IC50 (human αVβ3) of the same molecule?
A: Its IC50 is 11 nM.

Q: What about the IC50 (human αVβ5) of the same molecule?
A: The IC50 was 230 nM.

Q: What about the IC50 (human αVβ8) of the same molecule?
A: Its IC50 is 2010 nM.

Q: What does the source list for Cc1cc(C)n(-c2cccc(C(CC(=O)O)n3ccc(CCCc4ccc5c(n4)NCCC5)n3)c2)n1 (racemic) [Example 31, (±)-3-(3-(3,5-Dimethyl-1H-pyrazol-1-yl)phenyl)-3-(3-(3-(5,6,7,8-tetrahydro-1,8-naphthyridin-2-yl)propyl)-1H-pyrazol-1-yl)propanoic acid]?
A: IC50 (human αVβ6): 5.2 nM; IC50 (human αVβ1): 63 nM; IC50 (human αVβ3): 7.5 nM; IC50 (human αVβ8): 3300 nM

Q: How did the IC50 (human αVβ6) turn out when O=C(O)CC(c1cccc(N2CCOCC2)c1)n1ccc(CCCc2ccc3c(n2)NCCC3)n1 (racemic) [Example 32, (±)-3-(3-Morpholinophenyl)-3-(3-(3-(5,6,7,8-tetrahydro-1,8-naphthyridin-2-yl)propyl)-1H-pyrazol-1-yl)propanoic acid] was run?
A: The IC50 was 4.3 nM.

Q: And the IC50 (human αVβ1)?
A: The IC50 was 43 nM.

Q: And the IC50 (human αVβ3)?
A: The IC50 was 5.5 nM.

Q: And the IC50 (human αVβ8)?
A: The IC50 was 2700 nM.

Q: COc1ccc(C(CC(=O)O)n2ccc(-c3cccc(-c4ccc5c(n4)NCCC5)c3)n2)cn1 (racemic) [Example 46, (±)-3-(6-Methoxypyridin-3-yl)-3-(3-(3-(5,6,7,8-tetrahydro-1,8-naphthyridin-2-yl)phenyl)-1H-pyrazol-1-yl)propanoic acid] was tested. Which IC50 (human αVβ6) did it give?
A: Its IC50 is 28 nM.

Q: And the IC50 (human αVβ3)?
A: The IC50 was 14 nM.

Q: And the IC50 (human αVβ5)?
A: Its IC50 is 11 nM.

Q: What about the IC50 (human αVβ8) of the same molecule?
A: Its IC50 is 8200 nM.

Q: COc1ccc(C(CC(=O)O)n2ccc(CCCc3ccc4c(n3)NCCC4)n2)cn1 (single isomer, unassigned) [Example 3, 3-(6-Methoxypyridin-3-yl)-3-(3-(3-(5,6,7,8-tetrahydro-1,8-naphthyridin-2-yl)propyl)-1H-pyrazol-1-yl)propanoic acid] was tested. Which IC50 (human αVβ6) did it give?
A: The IC50 was 3.2 nM.

Q: And the IC50 (human αVβ1)?
A: The IC50 was 65 nM.

Q: What about the IC50 (human αVβ3) of the same molecule?
A: Its IC50 is 3.2 nM.

Q: And the IC50 (human αVβ5)?
A: Its IC50 is 11 nM.

Q: What about the IC50 (human αVβ8) of the same molecule?
A: The IC50 was 1120 nM.

Q: With COc1ccc(C(CC(=O)O)c2nc(CCCCc3ccc4c(n3)NCCC4)cs2)cn1 (single isomer, unassigned) [Example 14, 3-(6-Methoxypyridin-3-yl)-3-(4-(4-(5,6,7,8-tetrahydro-1,8-naphthyridin-2-yl)butyl)thiazol-2-yl)propanoic acid] as the molecule, how does the IC50 (human αVβ6) read?
A: Its IC50 is 2.1 nM.

Q: And the IC50 (human αVβ1)?
A: The IC50 was 241 nM.

Q: What about the IC50 (human αVβ3) of the same molecule?
A: The IC50 was 1.9 nM.

Q: And the IC50 (human αVβ5)?
A: Its IC50 is 11 nM.

Q: And the IC50 (human αVβ8)?
A: Its IC50 is 510 nM.

Q: How did the IC50 (human αVβ6) turn out when COc1ccc(C(CC(=O)O)c2nc(CCCc3ccc4c(n3)NCCC4)cs2)cn1 (single isomer, unassigned) [Example 15, 3-(6-Methoxypyridin-3-yl)-3-(4-(3-(5,6,7,8-tetrahydro-1,8-naphthyridin-2-yl)propyl)thiazol-2-yl)propanoic acid] was run?
A: The IC50 was 0.7 nM.

Q: What about the IC50 (human αVβ1) of the same molecule?
A: The IC50 was 55 nM.

Q: What about the IC50 (human αVβ3) of the same molecule?
A: The IC50 was 1.4 nM.

Q: What about the IC50 (human αVβ8) of the same molecule?
A: Its IC50 is 330 nM.

Q: With COc1ccc(C(CC(=O)O)c2nc(CCCCc3ccc4c(n3)NCCC4)cs2)cc1F (single isomer, unassigned) [Example 37, 3-(3-Fluoro-4-methoxyphenyl)-3-(4-(4-(5,6,7,8-tetrahydro-1,8-naphthyridin-2-yl)butyl)thiazol-2-yl)propanoic acid] as the molecule, how does the IC50 (human αVβ6) read?
A: The IC50 was 2 nM.

Q: And the IC50 (human αVβ1)?
A: The IC50 was 160 nM.

Q: What about the IC50 (human αVβ3) of the same molecule?
A: The IC50 was 1.7 nM.

Q: What about the IC50 (human αVβ5) of the same molecule?
A: The IC50 was 1.1 nM.

Q: What about the IC50 (human αVβ8) of the same molecule?
A: The IC50 was 870 nM.

Q: Which results are given for COc1ccc(C(CC(=O)O)c2nc(CCCc3ccc4c(n3)NCCC4)cs2)cc1F (single isomer, unassigned) [Example 38, 3-(3-Fluoro-4-methoxyphenyl)-3-(4-(3-(5,6,7,8-tetrahydro-1,8-naphthyridin-2-yl)propyl)thiazol-2-yl)propanoic acid]?
A: IC50 (human αVβ6): 2.1 nM; IC50 (human αVβ1): 66 nM; IC50 (human αVβ3): 2.3 nM; IC50 (human αVβ8): 860 nM

Q: For COc1ccc(C(CC(=O)O)c2ncc(CCCCc3ccc4c(n3)NCCC4)s2)cc1F (single isomer, unassigned) [Example 40], which IC50 (human αVβ6) is on record?
A: The IC50 was 17 nM.

Q: What about the IC50 (human αVβ3) of the same molecule?
A: Its IC50 is 28 nM.

Q: What about the IC50 (human αVβ5) of the same molecule?
A: Its IC50 is 10 nM.

Q: What about the IC50 (human αVβ8) of the same molecule?
A: Its IC50 is 2600 nM.

Q: Which IC50 (human αVβ6) does the source give for COc1cncc(C(CC(=O)O)n2nccc2CCCc2ccc3c(n2)NCCC3)c1 (single isomer, unassigned) [Example 63, 3-(5-methoxypyridin-3-yl)-3-(5-(3-(5,6,7,8-tetrahydro-1,8-naphthyridin-2-yl)propyl)-1H-pyrazol-1-yl)propanoic acid] here?
A: Its IC50 is 13 nM.

Q: What about the IC50 (human αVβ3) of the same molecule?
A: Its IC50 is 8 nM.

Q: And the IC50 (human αVβ5)?
A: Its IC50 is 0.87 nM.

Q: And the IC50 (human αVβ8)?
A: Its IC50 is 770 nM.

Q: For COc1ccc([C@H](CC(=O)O)N2CCC(CCCc3ccc4c(n3)NCCC4)C2)cn1 (stereo partly drawn) [Example 21, (3S)-3-(6-Methoxypyridin-3-yl)-3-(3-(3-(5,6,7,8-tetrahydro-1,8-naphthyridin-2-yl)propyl)pyrrolidin-1-yl)propanoic acid], which IC50 (human αVβ6) is on record?
A: The IC50 was 1.4 nM.

Q: What about the IC50 (human αVβ1) of the same molecule?
A: Its IC50 is 6500 nM.

Q: And the IC50 (human αVβ3)?
A: The IC50 was 4.4 nM.

Q: What about the IC50 (human αVβ5) of the same molecule?
A: Its IC50 is 10 nM.

Q: And the IC50 (human αVβ8)?
A: Its IC50 is 180 nM.
